From patent publication US4226610A, “Herbicidal compounds, preparation thereof and herbicides containing the same” (Meiji Selka Kaisha, Ltd., priority 1978, dated 1980)

What was measured:
cockspar grass = experiment: Experiment 1 foliar application to naturally growing weeds; format: in vivo, Echinochloa Crusgalli P. Beauv.; conditions: 2 months
Method in brief: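 Read-outs were a 0–5 killing index at 21 days and a reproduction score from (-), no reproduction, to (+++), no suppression. Reproduction was read at 2 months for cockspar grass and 4 months for the other species, after foliar spraying at 150 liter per 10 are with 0.1% surfactant.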

yabugarashi = experiment: as above; format: in vivo, Cayratia japonica Houtt.; conditions: 4 months
Method in brief: (§1)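 Naturally growing weeds receive a foliar spray of compound at prescribed concentrations, 150 liter per 10 are, containing 0.1% octylphenyl polyoxyethanol. Kill is rated 0 (no effect) to 5 (death) after 21 days. Regrowth is rated (-) to (+++) after 4 months, or 2 months for cockspar grass.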

purple nutsedge = experiment: as above; format: in vivo, Cyperus rotundus L.; conditions: 4 months
Method in brief: as §1

white clover = experiment: as above; format: in vivo, Trifolium repens L.; conditions: for Reproduction-inhibiting effect: 4 months
Method in brief: as §1

lace shrub = experiment: Experiment 3 foliar application to naturally growing shrubs; format: in vivo, Stephanandra incisa Zabel
Method in brief: (§2)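 Naturally growing shrubs were sprayed on the foliage at 150 liter per 10 are. Plant kill was then scored from 0 to 5 at 1 and 3 months, and reproduction was graded − to +++ at 3 months.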

torch azalea = experiment: as above; format: in vivo, Rhododendoron Kaempferi Planch.; conditions: after 3 months
Method in brief: as §2

oak = experiment: as above; format: in vivo, Quercus serrata Thunb; conditions: after 3 months
Method in brief: as §2

urikawa = experiment: Experiment 6 spray on aquatic plants in concrete pots; format: in vivo, Sagittaria pygmaea Miguel; conditions: 3 months
From the text: (§3) The detail of the assessment made in the following Experiments of the invention was as follows:
(§4) Four months after treatment, evaluation was made for inhibition of reproduction expressed in terms of symbols ranging from (-) to (+++) where (-) means no reproduction, namely complete suppression of reproduction, (±) remarkable suppression of reproduction; (+) considerable suppression of reproduction; (++) medium supprestion of reproduction; and (+++) no suppression of reproduction.
(§5) A paddy field soil was packed in 50 cm. square concrete pots. omodaka (Sagittaria trifolia L.), urikawa (Sagittaria pygmaea Miq.), prog-bit (Hydrocharis dubia) and aginashi (Sagittaria Aginashi Makino) were transplanted; then water was poured onto the soil at 5 cm. depth.
(§6) Further, water hyacinth, greater-duckweed (Spirodela polyrhiza Schleid.) and duckweed (Lemna paucicostata Hegelm) were floated on the water.
(§7) After one month, the compounds of the invention diluted to the prescribed concentrations as indicated in Table 8 were sprayed in an amount of 100 liter per 10 are. As a surfactant, 0.1% of octylphenyl polyoxyethanol was added thereto.
(§8) The killing index (0, no effect; 5, death) after 21 days and 3 months and the reproduction-inhibiting effect (-, no reproduction; +++, maximum reproduction) after 3 months were determined.

progbit = experiment: as above; format: in vivo, Hydrocharis dubia; conditions: 3 months
From the text: as §3, §4, §5, §6, §7, §8

greaterduckweed = experiment: as above; format: in vivo, Spirodela polyrhiza Sohleid.; conditions: 3 months
From the text: as §3, §4, §5, §6, §7, §8

hornwort = experiment: Experiment 7 application to water; format: in vivo, Ceratophyllum demersum L.; design: scale not given here
From the text: (§9) A black soil was packed in 50 cm. square concrete pots and water was poured there-onto at 50 cm. in depth. Hornwort (Ceratophyllum demersum L.), stonewort (Chara Braunii Gmel.) and salvinia (Salvinia natans All.) were transplanted and pond scum (Spirogira crassa Kutz) and diatoms (Bacillariophyta) were floated in the water.
(§10) Then, the compounds of the invention were applied dropwise onto the surface of the water so that the prescribed concentrations in the water are obtained as indicated in Table 9.

salvinia = experiment: Experiment 7 application to water; format: in vivo, Salvinia natans Allioni; design: scale not given here
From the text: as §9, §10

pond scum = experiment: Experiment 7 application to water; format: in vivo, Spirogira crassa Kutz.; design: scale not given here
From the text: as §9, §10

diatoms = experiment: Experiment 7 application to water; format: in vivo, Bacillariophyta; design: key: 0: no effect; 5: perfect control
From the text: as §9, §10

chestnut = experiment: Experiment 2 foliar application in Japanese cypress afforested land; format: in vivo, Castanea crenata Sieb et Zucc.; conditions: 0.063%; after 30 days
Method: as §3
The compounds of the invention and other compounds listed in Table 4. were diluted to prescribed concentrations and sprayed to shrubs by foliar application in a Japanese cypress afforested land in an amount of 150 liter per 10 are.
After 30 days and 3 months, the killing index (0, no effect; 5, death) was determined.
The heights of plants were 50-70 cm. for Japanese cypress, about 50 cm. for chestnut, 50-90 cm. for miyakozasa, about 100 cm. for eulalia and 70-100 cm. for kumaichigo, respectively.

weeds and shrubs = experiment: Weeding effects, general statements; format: in vivo; conditions: as shown in Experiment 1

CP(=O)(O)CCC(N)C(=O)O (racemic) [DL-AMPB choline]
-: Reproduction-inhibiting effect (cockspar grass; 0.2%) | Reproduction-inhibiting effect (yabugarashi; 0.2%) | Reproduction-inhibiting effect (white clover; 0.2%) | Reproduction-inhibiting (lace shrub; 0.1%, after 3 months) | Reproduction-inhibiting (lace shrub; 0.2%, after 3 months) | Reproduction-inhibiting (torch azalea; 0.1%) | Reproduction-inhibiting (torch azalea; 0.2%) | Reproduction-inhibiting (oak; 0.1%) | Reproduction-inhibiting (oak; 0.2%) | Reproduction-inhibiting effect (urikawa; 0.2%) | Reproduction-inhibiting effect (progbit; 0.2%) | Reproduction-inhibiting effect (greaterduckweed; 0.1%) | Reproduction-inhibiting effect (greaterduckweed; 0.2%)
±: Reproduction-inhibiting effect (cockspar grass; 0.1%) | Reproduction-inhibiting effect (yabugarashi; 0.1%) | Reproduction-inhibiting effect (purple nutsedge; 0.2%) | Reproduction-inhibiting effect (white clover; 0.1%) | Reproduction-inhibiting effect (progbit; 0.1%)
+: Reproduction-inhibiting effect (purple nutsedge; 0.1%) | Reproduction-inhibiting effect (urikawa; 0.1%) | Reproduction-inhibiting effect (greaterduckweed; 0.05%)
3: controlling effect (salvinia; 1 ppm, 21 days) | controlling effect (diatoms; 1 ppm, 21 days)
4.5: controlling effect (hornwort; 3 ppm, 21 days)
++: Reproduction-inhibiting effect (cockspar grass; 0.05%) | Reproduction-inhibiting effect (yabugarashi; 0.05%) | Reproduction-inhibiting effect (purple nutsedge; 0.05%) | Reproduction-inhibiting effect (white clover; 0.05%) | Reproduction-inhibiting (lace shrub; 0.05%, after 3 months) | Reproduction-inhibiting (torch azalea; 0.05%) | Reproduction-inhibiting (oak; 0.05%) | Reproduction-inhibiting effect (urikawa; 0.05%) | Reproduction-inhibiting effect (progbit; 0.05%)
5: controlling effect (hornwort; 3 ppm, 3 months) | controlling effect (hornwort; 10 ppm, 3 months) | controlling effect (hornwort; 10 ppm, 21 days) | controlling effect (salvinia; 3 ppm, 3 months) | controlling effect (salvinia; 10 ppm, 3 months) | controlling effect (salvinia; 10 ppm, 21 days) | controlling effect (pond scum; 3 ppm, 3 months) | controlling effect (pond scum; 10 ppm, 3 months) | controlling effect (pond scum; 10 ppm, 21 days) | controlling effect (diatoms; 3 ppm, 3 months) | controlling effect (diatoms; 10 ppm, 3 months) | controlling effect (diatoms; 10 ppm, 21 days)
2: controlling effect (hornwort; 1 ppm, 21 days) | controlling effect (salvinia; 1 ppm, 3 months) | controlling effect (pond scum; 1 ppm, 21 days)
1: controlling effect (hornwort; 1 ppm, 3 months) | controlling effect (pond scum; 1 ppm, 3 months) | controlling effect (diatoms; 1 ppm, 3 months)
4: controlling effect (salvinia; 3 ppm, 21 days) | controlling effect (pond scum; 3 ppm, 21 days) | controlling effect (diatoms; 3 ppm, 21 days)
1.5: Killing index of Upperground parts (white clover; 0.05%, 21 days)

CP(=O)(O)CC[C@H](N)C(=O)O [L-AMPB choline, L-2-Amino-4-methylphosphino-butanoic acid choline]
±: Reproduction-inhibiting effect (cockspar grass; 0.05%) | Reproduction-inhibiting effect (yabugarashi; 0.05%) | Reproduction-inhibiting effect (purple nutsedge; 0.1%) | Reproduction-inhibiting effect (white clover; 0.05%) | Reproduction-inhibiting (lace shrub; 0.05%, after 3 months)
3: controlling effect (hornwort; 1 ppm, 21 days)
4: controlling effect (salvinia; 1 ppm, 21 days) | controlling effect (pond scum; 1 ppm, 3 months) | controlling effect (pond scum; 1 ppm, 21 days) | controlling effect (diatoms; 1 ppm, 3 months) | controlling effect (diatoms; 1 ppm, 21 days)
+: Reproduction-inhibiting effect (purple nutsedge; 0.05%) | Reproduction-inhibiting effect (urikawa; 0.05%) | Reproduction-inhibiting effect (progbit; 0.05%)
twice effective: effectiveness relative to monosodium or monodiethylammonium salts of L-2-amino-4-methylphosphinobutanoic acid (weeds and shrubs)
5: controlling effect (hornwort; 3 ppm, 3 months) | controlling effect (hornwort; 3 ppm, 21 days) | controlling effect (hornwort; 10 ppm, 3 months) | controlling effect (hornwort; 10 ppm, 21 days) | controlling effect (salvinia; 1 ppm, 3 months) | controlling effect (salvinia; 3 ppm, 3 months) | controlling effect (salvinia; 3 ppm, 21 days) | controlling effect (salvinia; 10 ppm, 3 months) | controlling effect (salvinia; 10 ppm, 21 days) | controlling effect (pond scum; 3 ppm, 3 months) | controlling effect (pond scum; 3 ppm, 21 days) | controlling effect (pond scum; 10 ppm, 3 months) | controlling effect (pond scum; 10 ppm, 21 days) | controlling effect (diatoms; 3 ppm, 3 months) | controlling effect (diatoms; 3 ppm, 21 days) | controlling effect (diatoms; 10 ppm, 3 months) | controlling effect (diatoms; 10 ppm, 21 days)
2: controlling effect (hornwort; 1 ppm, 3 months)
4.5: Killing index (lace shrub; 0.05%, after 3 months) | Killing index (lace shrub; 0.05%, after 30 days)
-: Reproduction-inhibiting effect (cockspar grass; 0.1%) | Reproduction-inhibiting effect (cockspar grass; 0.2%) | Reproduction-inhibiting effect (yabugarashi; 0.1%) | Reproduction-inhibiting effect (yabugarashi; 0.2%) | Reproduction-inhibiting effect (purple nutsedge; 0.2%) | Reproduction-inhibiting effect (white clover; 0.1%) | Reproduction-inhibiting effect (white clover; 0.2%) | Reproduction-inhibiting (lace shrub; 0.1%, after 3 months) | Reproduction-inhibiting (lace shrub; 0.2%, after 3 months) | Reproduction-inhibiting (torch azalea; 0.05%) | Reproduction-inhibiting (torch azalea; 0.1%) | Reproduction-inhibiting (torch azalea; 0.2%) | Reproduction-inhibiting (oak; 0.05%) | Reproduction-inhibiting (oak; 0.1%) | Reproduction-inhibiting (oak; 0.2%) | Reproduction-inhibiting effect (urikawa; 0.1%) | Reproduction-inhibiting effect (urikawa; 0.2%) | Reproduction-inhibiting effect (progbit; 0.1%) | Reproduction-inhibiting effect (progbit; 0.2%) | Reproduction-inhibiting effect (greaterduckweed; 0.05%) | Reproduction-inhibiting effect (greaterduckweed; 0.1%) | Reproduction-inhibiting effect (greaterduckweed; 0.2%)
3.5: Killing index (chestnut)
